In US12396977B2, “Composition for treating degenerative brain diseases, containing 2-pentylfuran as active ingredient” (DAEGU GYEONGBUK INSTITUTE OF SCIENCE AND TECHNOLOGY, priority 2019, dated 2025):
“Also recorded” adds a separate entry of the source.

Assays:
[1] = tested on: Hana3A cells expressing Olfr110; experiment: Boyden chamber chemotaxis, Hana3A cells expressing Olfr110; format: cell-based; details: 2-PF 10, 100, 1000 uM
Procedure: (§1) Cell chemotaxis was measured using a multiwell Boyden chamber. More specifically, a polycarbonate filter (8 μm pore; #101-8; Neuroprobe) was coated with […] fibronectin in PBS (Sigma-Aldrich) for 2 hours, and the coated filter was placed in a Boyden chamber. In addition, the bottom side of the plate was filled with serum-free DMEM containing 2-pentylfuran or a culture supernatant. Next, microglia or Hana3A cells were transfected with an odorant receptor structure and then suspended in serum-free DMEM. Subsequently, microglia and Hana3A cells were allowed to stand at 37° C. for 4 hours and 8 hours, respectively. Cells sinking to the bottom were fixed with 4% PFA, and stained with hematoxylin for 10 minutes. Fixed cells were counted under an optical microscope in 5 randomly selected fixed […] fields (200×) using a scored eyepiece. The chemical chemotaxis index was defined as the number of migrating cells using an untreated group as a standard.

[2] = tested on: Olfr110; experiment: Odorant receptor / Olfr110 expression in microglia (qRT-PCR, immunostaining); format: cell-based, mouse; details: vs control
Description: (§2) For the measurement of mRNA, RNA was isolated from red blood cells, microglia, astrocytes, Hana3A cells, or cerebral cortical cells using the MagNa Lyser (Roche Molecular Diagnostics) using TRIzol reagent (Invitrogen, Carlsbad, CA.) according to the manufacturer's protocol. Then, cDNA was generated through reverse transcription using the isolated mRNA (using PrimeScript™ 1st str and cDNA Synthesis kit—#6110; Takara Bio Inc). This process was quantitatively measured in real time through quantitative real-time-PCR (using LightCycler® 480 SYBR Green I Master). The measured values were calculated using the 2-ΔΔCt method.
Thereafter, the cells were washed with PBS and fixed in 4% paraformaldehyde (#6148; Sigma Aldrich) for 5 minutes. Subsequently, the cells were cultured in PBS containing 4% normal horse serum (#008-000-121; Jackson ImmunoResearch) and 0.1% TWEEN® 20 (#P9416; Sigma-Aldrich) at room temperature for 1 hour. Then, the cells were […] at 4° C. overnight with the primary antibodies listed below. The antibodies are as follows: Olfr110 (rabbit-anti-Olfr110; 1:10,000; #ab177327; Abcam), Iba-1 (goat-anti-Iba-1; 1:1,000; #ab5076; Abcam), and GFAP (mouse-anti-GFAP; 1:1,000; #556330; BD Biosciences). Samples were cultured with secondary antibodies in PBS including 0.1% TWEEN® 20 (#P9416; Sigma-Aldrich) at room temperature for 1 hour. […]

[3] = tested on: cerebral cortex; experiment: Cytokine mRNA in cerebral cortex after IP injection (qRT-PCR); format: in vivo, mouse; details: vs control
Description: as §2

[4] = tested on: primary microglia; experiment: Fura-2/AM calcium imaging of microglia; format: cell-based, mouse; details: 2-PF 100, 300, 1000 μM
Procedure: The newly isolated microglia were placed on poly-D-lysine-coated 18-mm aperture microscope cover glasses (#0111580; Marienfeld), and after 24 hours, the microglia were cultured in a superfusion chamber for 30 minutes. The chamber contained 4 μM of Fura-2/AM (Ca^2+-sensitive fluorescent dye; #F1221; Thermo Fisher Scientific) in a 0.22 μm-filtered Ringer's solution (115 mM NaCl, 2.5 mM KCl, 1 mM CaCl2, 1.5 mM MgCl2, 4.5 mM HEPES, pH 7.4). After calcium staining culture, the chamber was placed under an inverted microscope and rinsed with Ringer's solution for 20 minutes before treatment with […]. In this case, the flow rate of the solution is 12 ml/min. Next, the primary microglia were treated with 300 μM ATP (#A2383; Sigma Aldrich) for 5 seconds. After being washed for 5 minutes, the primary microglia were treated with a 2-pentylfuran solution at a concentration of 100 μM for 5 seconds. This step was performed with a 2-pentylfuran solution at two concentrations (300 and 1000 μM). Finally, the primary microglia were treated with a 300 μM ATP solution for 5 seconds. The emitted fluorescent material was photographed using a CCD camera every 2 seconds. Pseudo-color images were converted using fractional fluorescence changes (ΔF/F, Δ[Ca^2+]i). Furthermore, these images show changes in intracellular calcium ions. […]

[5] = tested on: Olfr111; experiment: Luciferase assay in Hana3A cells, Olfr111; format: cell-based, mouse; details: Hana3A cells
Procedure: Next, Hana3A cells were transfected with RTP1S, and their location and presence on the cell membrane were confirmed as previously described (Behrens et al., 2009; Zhuang and Matsunami, 2008). Such transfection was performed using Lipofectamine 2000 (#11668-019; Thermo Fisher Scientific) according to the manufacturer's instructions. More specifically, the transfected cells were grown on a coverslip (#0101050; Marienfeld) coated with poly D lysine (10 μg/ml; #P7280; Sigma Aldrich). Next, the cells were washed with a warm PBS solution and cooled with ice for 30 minutes to block endocytosis. […] The cells were then incubated with normal horse serum (#008-000-121; Jackson ImmunoResearch) at room temperature for 1 hour. […] After being washed with PBS, the cells were treated with a Cy3-conjugated donkey anti-mouse antibody (1:1,000; #715-165-150; Jackson ImmunoResearch), an Alexa488-conjugated donkey anti-mouse antibody (1:1,000; #715-545-150; Jackson ImmunoResearch), or a Cy3-conjugated donkey anti-rabbit antibody (1:1,000; #711-165-152; Jackson ImmunoResearch) at room temperature for 1 hour. The cells were mounted with a Vectashield fluorescent mounting medium containing DAPI (#H-1200; Vector Laboratories). The expression of heterologous odorant receptors was analyzed with a confocal laser scanning microscope LSM700 and ZEN software (Zeiss).
The Dual-Glo luciferase assay system (#E2940; Promega) was used for odorant receptor ligand screening. More specifically, Hana3A cells were streaked and spread on a white polystyrene 96-well plate (#353296; BD Biosciences) one day before transfection. pCRELuc (1 μg; #219076; Agilent Technologies), pRL-SV40 (1 μg; #E2231; Promega), RTP1S (1 μg), and OR (6 μg; or Mock) vectors were transfected for 24 hours in each plate. Each plate was analyzed using Lipofectamine 2000 (#11668-019; Thermo Fisher Scientific) according to the manufacturer's protocol. Transfected cells were stimulated in CD293 medium (#11913-019; Thermo Fisher Scientific) at 37° C. for 4 hours using diluted odorants at various concentrations. The activity of luciferase was normalized by the activity of Renilla luciferase. The amount of light emitted was measured using a SpectraMax L microplate reader (Molecular Devices).

[6] = tested on: microglia; experiment: GFP intensity / morphology of microglia in CX3CR1 GFP mice; format: in vivo, mouse; details: cerebral cortex of CX3CR1 GFP mice after injection, vs control
Procedure: In order to analyze morphological changes in microglia activation, 9-week-old CX3CR1^GFP/− mice were used. Two hours after an IP containing or not containing 2-PF was injected into two mice, brain sections were collected by cryosection. After a 40 μm-thick brain tissue fragment was prepared to be smaller than 1 μm, a GFP signal of microglia was measured using a 40-fold magnification confocal microscope. A GFP-pixel signal of microglia was analyzed using Zeiss ZEN Software (Zeiss).

[7] = tested on: Hana3A cells expressing Olfr111; experiment: Boyden chamber chemotaxis, Hana3A cells expressing Olfr111; format: cell-based; details: 2-PF 10, 100, 1000 uM
Procedure: as §1

CCCCCc1ccco1 [2-PF, 2-pentylfuran]
mobility (chemotaxis) of Olfr110-expressing Hana3A cells [1]: increased in mobility in a concentration-dependent manner
Olfr110 protein level (immunostaining) [2]: significantly increases
mRNA expression level of inflammatory cytokines in the cerebral cortex [3]: significantly increased
intracellular calcium ion levels [4]: increased according to an injection amount
reactivity of Olfr111 (relative luciferase activity) [5]: particularly strong reactivity; also recorded: highest reactivity
GFP intensity of microglia (morphological change, activation) [6]: highly increased
mobility (chemotaxis) of Olfr111-expressing Hana3A cells [7]: increased in mobility in a concentration-dependent manner
